This passage reports IC50 results from patent US20050209278A1, “Piperidinyl- and piperazinyl-sulfonylmethyl hydroxamic acids and their use as protease inhibitors” (priority 2002, published 2005).

One experiment deals with T1, MMP-1 (Homo sapiens, UniProt P03956).
T1 construct: made in house; host or cells: MMP-1-transfected HT-1080 cells (spent media)
T1 sequence (P03956 100-469): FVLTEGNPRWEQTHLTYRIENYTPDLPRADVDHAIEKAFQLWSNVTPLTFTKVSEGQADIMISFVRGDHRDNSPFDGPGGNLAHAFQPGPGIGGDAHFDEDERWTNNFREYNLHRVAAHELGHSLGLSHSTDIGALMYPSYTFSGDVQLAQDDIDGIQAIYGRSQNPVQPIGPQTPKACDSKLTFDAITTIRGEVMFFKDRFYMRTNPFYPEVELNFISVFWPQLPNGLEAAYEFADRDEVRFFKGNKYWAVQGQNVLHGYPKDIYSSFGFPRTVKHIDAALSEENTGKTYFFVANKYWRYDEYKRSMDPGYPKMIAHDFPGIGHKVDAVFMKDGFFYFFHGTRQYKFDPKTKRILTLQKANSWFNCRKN
Kind of experiment: In vitro MMP inhibition, IC50 determination (fluorogenic substrate I). The class given is biochemical. The note with it: value in parenthesis; read-out: MMP-1 (IC-50). On the procedure:
Several hydroxamic acids and salts thereof were analyzed in in vitro assays to determine their ability to inhibit the MMP cleavage of peptide substrates. […] and IC50 constants were calculated from the assayed hydroxamic acid-MMP interactions. Human recombinant MMP-1, MMP-2, MMP-9, MMP-13, and MMP-14 were used in this assay. All enzymes were prepared in Assignee's laboratories following usual laboratory procedures. Protocols for the preparation and use of these enzymes are available in the scientific literature. See, e.g., Enzyme Nomenclature (Academic Press, San Diego, Calif., 1992) (and the citations therein). See also, Freije et al., “Molecular cloning and expression of collagenase-3, a novel human matrix metalloproteinase produced by breast carcinomas,” J Biol. Chem., 269(24), 16766-16773 (1994). The MMP-1 proenzyme was purified from the spent media of MMP-1-transfected HT-1080 cells provided by Dr. Harold Welgus of Washington University (St. Louis, Mo.). The protein was purified on a zinc chelating column. All MMPs were activated using 4-aminophenylmercuric acetate (“APMA”, Sigma Chemical, St. Louis, Mo.) or trypsin. MMP-9 also was activated using human recombinant MMP-3 (purified in Assignee's laboratory following standard cloning and purification techniques). […] Substrate (I) was purchased from Baychem (Redwood City, Calif.), and substrate II was prepared Assignee's laboratory. Substrate I was used in the IC50 determination assays, while substrate II was used in the Ki determination assays. In the absence of MMP inhibitory activity, either substrate is cleaved at the Gly-Leu peptide bond. […] The stock solutions of the assayed hydroxamic acids (or salts thereof) were prepared in 1% dimethyl sulfoxide (DMSO). […] The experiment controls contained the same amount of Buffer A/DMSO as the assayed sample, but contained no hydroxamic acid (or salt thereof). The assays from which the IC50 determinations were made were performed as follows. […] Louis, Mo.). The assayed hydroxamic acid samples were incubated in MicrofluorTM White Plates (Dynatech, Chantilly, Va.) and analyzed on a Perkin Elmer […] plate reader (Norwalk, Conn.). The excitation wavelength was 328 nm, and the emission wavelength-415 nm. […] As stated in the previous paragraph, samples containing varying concentrations of the same assayed hydroxamic acid were prepared. Inhibition was measured as a reduction in fluorescent intensity as a function of MMP inhibitor concentration. […] All values in Table 2 are given in nM units. The IC50 measurements are in parenthesis.

Another experiment addresses T2, MMP-9 (Homo sapiens, UniProt P14780).
T2 construct: made in house; host or cells: MMP-9-transfected HT1080 cells (spent media)
The description is as above. The class given is biochemical. The note with it: value in parenthesis; read-out: MMP-9 (IC-50). On the procedure:
Several hydroxamic acids and salts thereof were analyzed in in vitro assays to determine their ability to inhibit the MMP cleavage of peptide substrates. […] and IC50 constants were calculated from the assayed hydroxamic acid-MMP interactions. Human recombinant MMP-1, MMP-2, MMP-9, MMP-13, and MMP-14 were used in this assay. All enzymes were prepared in Assignee's laboratories following usual laboratory procedures. Protocols for the preparation and use of these enzymes are available in the scientific literature. See, e.g., Enzyme Nomenclature (Academic Press, San Diego, Calif., 1992) (and the citations therein). See also, Freije et al., “Molecular cloning and expression of collagenase-3, a novel human matrix metalloproteinase produced by breast carcinomas,” J Biol. Chem., 269(24), 16766-16773 (1994). The MMP-9 proenzyme was purified by gelatin Sepharose chromatography from spent media of MMP-9-transfected HT1080 cells provided by Dr. Howard Welgus of Washington University (St. Louis, Mo.). All MMPs were activated using 4-aminophenylmercuric acetate (“APMA”, Sigma Chemical, St. Louis, Mo.) or trypsin. MMP-9 also was activated using human recombinant MMP-3 (purified in Assignee's laboratory following standard cloning and purification techniques). […] Substrate (I) was purchased from Baychem (Redwood City, Calif.), and substrate II was prepared Assignee's laboratory. Substrate I was used in the IC50 determination assays, while substrate II was used in the Ki determination assays. In the absence of MMP inhibitory activity, either substrate is cleaved at the Gly-Leu peptide bond. […] The stock solutions of the assayed hydroxamic acids (or salts thereof) were prepared in 1% dimethyl sulfoxide (DMSO). […] The experiment controls contained the same amount of Buffer A/DMSO as the assayed sample, but contained no hydroxamic acid (or salt thereof). The assays from which the IC50 determinations were made were performed as follows. […] Louis, Mo.). The assayed hydroxamic acid samples were incubated in MicrofluorTM White Plates (Dynatech, Chantilly, Va.) and analyzed on a Perkin Elmer […] plate reader (Norwalk, Conn.). The excitation wavelength was 328 nm, and the emission wavelength-415 nm. […] As stated in the previous paragraph, samples containing varying concentrations of the same assayed hydroxamic acid were prepared. Inhibition was measured as a reduction in fluorescent intensity as a function of MMP inhibitor concentration. […] All values in Table 2 are given in nM units. The IC50 measurements are in parenthesis.

Several values for one entry are separate records, joined by “and”; a condition that tells them apart may be missing. Equal values may be shown once.

T2 sequence (P14780 107-707 limits assumed): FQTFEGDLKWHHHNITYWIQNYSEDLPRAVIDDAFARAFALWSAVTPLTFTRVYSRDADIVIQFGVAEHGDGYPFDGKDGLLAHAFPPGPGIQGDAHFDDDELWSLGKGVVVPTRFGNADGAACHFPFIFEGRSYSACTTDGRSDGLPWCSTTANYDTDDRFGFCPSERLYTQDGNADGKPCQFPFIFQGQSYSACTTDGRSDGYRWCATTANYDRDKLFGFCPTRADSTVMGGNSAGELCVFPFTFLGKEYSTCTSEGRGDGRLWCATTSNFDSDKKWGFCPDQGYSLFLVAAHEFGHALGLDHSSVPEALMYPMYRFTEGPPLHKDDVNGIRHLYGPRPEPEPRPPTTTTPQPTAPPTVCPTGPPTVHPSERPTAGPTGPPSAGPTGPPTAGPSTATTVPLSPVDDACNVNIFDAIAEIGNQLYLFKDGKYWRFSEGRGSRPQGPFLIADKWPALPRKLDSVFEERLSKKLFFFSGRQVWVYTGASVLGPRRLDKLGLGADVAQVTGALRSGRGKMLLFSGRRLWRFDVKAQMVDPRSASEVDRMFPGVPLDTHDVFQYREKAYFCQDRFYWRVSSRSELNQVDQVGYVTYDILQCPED

With `CCCCCCc1ccc(N2CCN(S(=O)(=O)C3(C(=O)NO)CCN(CCOC)CC3)CC2)cc1` [Example 199], the IC50 on MMP-1 is above 10000 nM; at MMP-9, 1 nM.
Regarding `CCCc1ccc(N2CCN(S(=O)(=O)C3(C(=O)NO)CCN(CCOC)CC3)CC2)cc1` [Example 200], the values for the IC50 at MMP-1 and on MMP-9 were above 10000 nM and below 0.1 nM, respectively.
As for `COCCN1CCC(C(=O)NO)(S(=O)(=O)N2CCN(c3ccc(Br)cc3)CC2)CC1` [Example 201], the IC50 at MMP-1 is 6850 nM; at MMP-9, 5.7 nM.
With `COCCN1CCC(C(=O)NO)(S(=O)(=O)N2CCN(c3ccc(OC(F)(F)F)cc3)CC2)CC1` [Example 202], the values for the IC50 on MMP-1 and on MMP-9 were above 10000 nM and 6.3 nM, respectively.
As for `O=C(NO)C1(S(=O)(=O)N2CCN(c3ccc(OC(F)(F)F)cc3)CC2)CCN(C2CC2)CC1` [Example 203], the IC50 at MMP-1 was above 10000 nM; on MMP-9, 3.2 nM and 1.9 nM.
